Measurements from ChEMBL document CHEMBL2177042, “Design, synthesis, and antidiabetic activity of 4-phenoxynicotinamide and 4-phenoxypyrimidine-5-carboxamide derivatives as potent and orally efficacious TGR5 agonists” (J Med Chem, 2012).

Key:
Type in all cases: ADME, organism-based
[1] = Drug level in ICR mouse gall bladder at 50 mg/kg, po after 1 hr; design: dose 50 mg/kg, route oral; details: read-out: Drug uptake
[2] = Drug level in ICR mouse bile at 50 mg/kg, po after 4.5 hrs; design: dose 50 mg/kg, route oral; details: read-out: Drug uptake
[3] = Cmax in ICR mouse plasma at 50 mg/kg, po; design: dose 50 mg/kg, route oral
[4] = Tmax in Sprague-Dawley rat at 5 mg/kg, po; design: dose 5 mg/kg, route oral; details: in vivo
[5] = AUC (0 to 4.5 hrs) in ICR mouse plasma at 50 mg/kg, po; design: time < 4.5 hr, dose 50 mg/kg, route oral
[6] = Half life in Sprague-Dawley rat at 5 mg/kg, po; design: dose 5 mg/kg, route oral; details: in vivo
[7] = AUC (0 to 4.5 hrs) in ICR mouse bile at 50 mg/kg, po; design: time < 4.5 hr, dose 50 mg/kg, route oral
[8] = Drug level in ICR mouse gall bladder at 50 mg/kg, po after 4.5 hrs; design: dose 50 mg/kg, route oral; details: read-out: Drug uptake
[9] = Drug level in ICR mouse gall bladder at 50 mg/kg, po after 0.5 hrs; design: dose 50 mg/kg, route oral; details: read-out: Drug uptake
[10] = Cmax in ICR mouse bile at 50 mg/kg, po; design: dose 50 mg/kg, route oral
[11] = Plasma concentration in ICR mouse at 50 mg/kg, po after 1 hr; design: dose 50 mg/kg, route oral
[12] = Plasma concentration in ICR mouse at 50 mg/kg, po after 4.5 hrs; design: dose 50 mg/kg, route oral
[13] = AUC (0 to 4.5 hrs) in ICR mouse gall bladder at 50 mg/kg, po; design: time < 4.5 hr, dose 50 mg/kg, route oral
[14] = MRT in Sprague-Dawley rat at 5 mg/kg, po; design: dose 5 mg/kg, route oral; details: in vivo
[15] = AUC (0 to t) in Sprague-Dawley rat at 5 mg/kg, po; design: dose 5 mg/kg, route oral; details: plasma
[16] = Drug level in ICR mouse bile at 50 mg/kg, po after 2.5 hrs; design: dose 50 mg/kg, route oral; details: read-out: Drug uptake
[17] = Plasma concentration in ICR mouse at 50 mg/kg, po after 2.5 hrs; design: dose 50 mg/kg, route oral
[18] = Drug level in ICR mouse bile at 50 mg/kg, po after 0.5 hrs; design: dose 50 mg/kg, route oral; details: read-out: Drug uptake
[19] = Plasma concentration in ICR mouse at 50 mg/kg, po after 0.5 hrs; design: dose 50 mg/kg, route oral
[20] = Cmax in ICR mouse gall bladder at 50 mg/kg, po; design: dose 50 mg/kg, route oral
[21] = Drug level in ICR mouse bile at 50 mg/kg, po after 1 hr; design: dose 50 mg/kg, route oral; details: read-out: Drug uptake
[22] = Drug level in ICR mouse gall bladder at 50 mg/kg, po after 2.5 hrs; design: dose 50 mg/kg, route oral; details: read-out: Drug uptake
[23] = Cmax in Sprague-Dawley rat at 5 mg/kg, po; design: dose 5 mg/kg, route oral; details: in vivo
[24] = AUC (0 to infinity) in Sprague-Dawley rat at 5 mg/kg, po; design: time infinity, dose 5 mg/kg, route oral; details: plasma

concentration at 1 h [1]: 393 ng/g | concentration at 4.5 h [2]: 2000 nM | Cmax [3]: 3600 nM | Tmax [4]: 0.9 h | AUC(0-t) at 4.5 h [5]: 3130 ng·h/mL | half-life [6]: 1.5 h | AUC(0-t) at 4.5 h [7]: 3380 ng·h/mL | concentration at 4.5 h [8]: 217 ng/g | concentration at 0.5 h [9]: 294 ng/g | Cmax [10]: 3700 nM | concentration at 1 h [11]: 2300 nM | concentration at 4.5 h [12]: 510 nM | AUC(0-t) at 4.5 h [13]: 1290 ng·h/mL | MRT [14]: 2.4 h | AUC(0-t) [15]: 147 ng·h/mL | concentration at 2.5 h [16]: 2000 nM | concentration at 2.5 h [17]: 2000 nM | concentration at 0.5 h [18]: 1700 nM | concentration at 0.5 h [19]: 3100 nM | Cmax [20]: 523 ng/g | concentration at 1 h [21]: 2100 nM | concentration at 2.5 h [22]: 306 ng/g | Cmax [23]: 56 ng/mL | AUC(0-inf) [24]: 155 ng·h/mL
Structure (SMILES): Cc1ccc(C)c(Oc2ccncc2C(=O)N2CCN(C3CC3)c3ccccc32)c1
